Measured values from paper PMC4510386, “Transglycosylation Activity of Glycosynthase Mutants of Endo-β-N-Acetylglucosaminidase from Coprinopsis cinerea” (PLoS ONE, 2015).

Molecular target: T1, Endo-CC1 (Coprinopsis cinerea, UniProt A8P7P2)
T1 construct: gene CC1G_11102; full-length cDNA, 787 residues, His6-tagged, pET23b NdeI/XhoI, E. coli BL21-CodonPlus (DE3), HisTrap purified
Assay: HPLC of Dns-Asn-GlcNAc release, Lineweaver-Burk
Assay type: biochemical
Conditions: 100 mM phosphate pH 7.5, 37 C; hydrolysis

T1 sequence (A8P7P2 entry or part of it): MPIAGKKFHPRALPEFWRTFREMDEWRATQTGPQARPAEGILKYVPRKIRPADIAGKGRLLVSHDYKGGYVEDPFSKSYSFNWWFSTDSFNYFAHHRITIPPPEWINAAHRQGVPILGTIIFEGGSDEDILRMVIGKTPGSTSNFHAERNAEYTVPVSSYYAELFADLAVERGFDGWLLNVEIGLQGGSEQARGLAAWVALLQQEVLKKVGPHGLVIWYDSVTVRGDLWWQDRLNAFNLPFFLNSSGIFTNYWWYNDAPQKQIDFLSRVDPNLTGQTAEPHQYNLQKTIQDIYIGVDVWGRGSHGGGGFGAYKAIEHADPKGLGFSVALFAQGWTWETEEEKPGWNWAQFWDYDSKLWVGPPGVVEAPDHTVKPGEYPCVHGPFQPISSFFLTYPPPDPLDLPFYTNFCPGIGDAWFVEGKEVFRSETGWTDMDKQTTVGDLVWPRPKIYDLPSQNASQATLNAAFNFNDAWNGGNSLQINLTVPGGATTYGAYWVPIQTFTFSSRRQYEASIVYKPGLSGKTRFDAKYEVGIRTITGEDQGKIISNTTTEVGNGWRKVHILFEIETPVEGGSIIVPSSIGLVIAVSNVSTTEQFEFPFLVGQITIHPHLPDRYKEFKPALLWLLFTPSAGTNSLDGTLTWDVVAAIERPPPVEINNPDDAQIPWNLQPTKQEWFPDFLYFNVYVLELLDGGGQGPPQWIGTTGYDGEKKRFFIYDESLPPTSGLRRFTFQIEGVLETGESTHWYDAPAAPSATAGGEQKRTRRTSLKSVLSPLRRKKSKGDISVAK

## Dns-SG
  Km: 1900 µM
